Results reported in US20170143748A1, “ANTI-TUMOR PHARMACEUTICAL APPLICATION OF PENTACYCLIC TRITERPENE SAPONIN COMPOUNDS OF SZECHUAN MELANDIUM ROOT” (priority 2014, published 2017).
Where “and” joins values, the source holds several entries; their conditions need not be identical. Identical values can stand only once.

Assays:
[1] = tested on: HepG2; assay: Cell cycle detection (PI flow cytometry); format: cell-based, Human
Description: Human resources hepatoma cell line HepG2 was provided by Cancer Hospital, Chinese Academy of Medical Sciences. […] Cells were passaged every 2 or 3 days, and all the experiments were carried out on exponentially growing cells.
[…] Cells were blown and centrifuged at 1000 RPM for 5 mins. The supernatant was removed and 1-2 mL cold phosphate-buffered saline was added, blown and centrifuged again. The precipitate was blew and then fixed with −20° C. 70% alcohol (1-2 mL), centrifuged again. Alcohol was removed, and the precipitate was washed two times with phosphate-buffered saline, blown for suspension and filtered through 100 mesh gauze filter to flow detection tube, centrifuged at 1000 RPM for 5 mins. The supernatant was abandoned and cells were stained with PI dye (50 μg/mL), vibrated and stained at least 30 mins in darkness, detected with Flow cytometry.

[2] = tested on: HepG2 human heptoma; assay: Anti-HepG2 human heptoma in BALB/c (nu/nu) nude mice; settings: for body weight of HepG2-bearing nude mice / tumor volume of HepG2-bearing nude mice: mg/kg BW: total saponins 1.5, Compound 1, combination 1 & 39, Cytoxan 40, Sc
Description: 70 male BALB/c (nu/nu) nude mice (18-20 g, License NO. SCXK (BJ) 2009-0017, National Institutes for Food and Drug Control.) were adaptively bred for one week, and then used in the following experiment.
Human resources hepatoma cell line HepG2 was cultured in RPMI-1640 medium containing 100 U/mL Penicillin and 100 μg/mL Streptomycin with 10% fetal bovine serum and maintained at 37° C. in a humidified atmosphere (5% CO2 and […]).
70 BALB/c (nu/nu) nude mice were adaptively bred for 1 week, HepG2 cells were inoculated subcutaneously into the back of nude mice, 1×10^7 cells per mouse. […] 3 days after inoculation, mice of every therapeutic group were all given the relevant compounds or drugs for 3 weeks, and others were given isodose physiological saline.
The body weight and the size of tumor were measured and recorded weekly. The tumor volume was calculated with the formula below:
tumor volume V=π/6×a×b^2 (a, b means the transverse and longitudinal length of tumor)
At the end of administration, mice were fastened for 8 hours, weighed the fasting body weight, dropped off eyeball to collect blood, centrifuged and collected serum for next experiment. The tumors were departed and weighed. Tumor Index and inhibition rate were calculated as below:
Tumor Index=Tumor mass (mg)/body weight of animal (g)
Inhibition rate=(Average tumor massControl group−Average tumor massadministration group)/Average tumor massControl group×100%
Mice in the model group were injected with sterile water (10 ml/kg BW), Sc. All the animals were treated at 9 am for 3 weeks.
Determination of body weights: Body weights of animals were weighed and recorded once a week.
Tumor measurement: The transverse and longitudinal lengths of tumor were measured with vernier caliper weekly.
End of the experiment: After mice being administrated for 3 weeks (21 days), the experiment was terminated.

## COC(=O)C1CC(O[C@H]2CC[C@]3(C)[C@H]4C=CC5[C@@H]6CC(C)(C)CC[C@]6(C(=O)OC6OC(C)C(OC(=O)/C=C/c7ccc(C)cc7)C(OC(C)=O)C6OC6CC(C)C(O)C(O)C6O)[C@H](O)C[C@@]5(C)[C@]4(C)CC[C@H]3[C@]2(C)C=O)C(OC2OC(CO)C(O)C(O)C2O)C(OC2OCC(O)C(O)C2O)C1O (some centres unmarked) [Compound (2), sinocrassuloside VII]
[1]; 20 μg/mL, 24 h
  cells in G0/G1: 67.26%
  cells in G2/M: 15.57%
  cells in S: 17.22%
[1]; 20 μg/mL, 48 h
  cells in G0/G1: 60.62%
  cells in G2/M: 23.27%
  cells in S: 16.11%
[1]; 20 μg/mL, 72 h
  cells in G0/G1: 59.77%
  cells in G2/M: 13.96%
  cells in S: 26.27%
[1]; 40 μg/mL, 24 h
  cells in G0/G1: 52.52%
  cells in G2/M: 29.95%
  cells in S: 17.53%
[1]; 40 μg/mL, 48 h
  cells in G0/G1: 55.08%
  cells in G2/M: 32.64%
  cells in S: 12.29%
[1]; 40 μg/mL, 72 h
  cells in G0/G1: 63.09%
  cells in G2/M: 20.44%
  cells in S: 16.48%
[1]; 80 μg/mL, 24 h
  cells in G0/G1: 55.19%
  cells in G2/M: 21.20%
  cells in S: 20.39±2.56% and 20.39%
[1]; 80 μg/mL, 48 h
  cells in G0/G1: 47.28%
  cells in G2/M: 21.77%
  cells in S: 30.95±5.84% and 30.95%
[1]; 80 μg/mL, 72 h
  cells in G0/G1: 49.28%
  cells in G2/M: 10.39%
  cells in S: 40.34±12.32% and 40.34%
[2]; 0 W
  body weight of HepG2-bearing nude mice: 19.50 ± 0.53
[2]; 1 W
  body weight of HepG2-bearing nude mice: 21.60 ± 0.84
  tumor volume of HepG2-bearing nude mice: 564.84 ± 474.95
[2]; 2 W
  body weight of HepG2-bearing nude mice: 22.40 ± 1.17
  tumor volume of HepG2-bearing nude mice: 841.36 ± 577.72
[2]; 3 W
  body weight of HepG2-bearing nude mice: 22.70 ± 0.95
  tumor volume of HepG2-bearing nude mice: 911.76 ± 460.22
[2]; HepG2-bearing nude mice, after 3 weeks, from average tumor mass vs model
  Inhibition rate: 87.42% and 87.32%
